Assay: Solubility of non-cyano containing pyrethroids in non-polar solvents
Format: physicochemical
Method: Specifically, samples were prepared in 4 ounce glass bottles by combining the non-cyano containing pyrethroids Bifenthrin Technical (supplied by FMC Corporation) and Permethrin Technical sold by Gharda USA, Inc with various non-polar solvents at 10%, 25% and 50% rates by mass (total mass of each sample being 40 grams) so that the 10% formulation contained 4 g of the pyrethroid and 36 g solvent; the 25% formulation contained 10 g of the pyrethroid and 30 g solvent; and the 50% formulation contained 20 g of the pyrethroid and 20 g solvent. Each of the resulting solutions was stirred vigorously in the bottles until a clear solution was obtained. The initial temperatures of the solutions in each of bottles was recorded before the bottles were heated on a laboratory hot plate Each of the solutions was stirred constantly while the solution was being heated on the hot plate and the solutions were frequently observed for signs of any visible separation between the solvent and the solute. […] The final temperature of the solutions in each of the bottles was recorded and it was noted that the temperature required to achieve full miscibility of the pyrethroids in the solvents was up to about 80° C.
In the following Table III, each of the non-cyano containing pyrethroids that were tested and each of the non-polar solvents which were employed with such pyrethroids are listed as well as the initial temperature of the solution and the final temperature resulting in full miscibility of the components.

[1] = Canola Oil (Stepsol ROW-W), 10% pyrethroid by mass
[2] = Canola Oil (Stepsol ROW-W), 25% pyrethroid by mass
[3] = Canola Oil (Stepsol ROW-W), 50% pyrethroid by mass
[4] = Polybutene H-7, 10% pyrethroid by mass
[5] = Polybutene H-7, 25% pyrethroid by mass
[6] = Polybutene H-7, 50% pyrethroid by mass
[7] = Polybutene H-8, 10% pyrethroid by mass
[8] = Polybutene H-8, 25% pyrethroid by mass
[9] = Polybutene H-8, 50% pyrethroid by mass
[10] = Polybutene L-14, 10% pyrethroid by mass
[11] = Polybutene L-14, 25% pyrethroid by mass
[12] = Polybutene L-14, 50% pyrethroid by mass
[13] = Polybutene L-50, 10% pyrethroid by mass
[14] = Polybutene L-50, 25% pyrethroid by mass
[15] = Polybutene L-50, 50% pyrethroid by mass
[16] = Safflower Oil, 10% pyrethroid by mass
[17] = Safflower Oil, 25% pyrethroid by mass
[18] = Safflower Oil, 50% pyrethroid by mass

SMILES | Final Temp. (resulting in full miscibility) [1] [°C] | Final Temp. (resulting in full miscibility) [2] [°C] | Final Temp. (resulting in full miscibility) [3] [°C] | Final Temp. (resulting in full miscibility) [4] [°C] | Final Temp. (resulting in full miscibility) [5] [°C] | Final Temp. (resulting in full miscibility) [6] [°C] | Final Temp. (resulting in full miscibility) [7] [°C] | Final Temp. (resulting in full miscibility) [8] [°C] | Final Temp. (resulting in full miscibility) [9] [°C] | Final Temp. (resulting in full miscibility) [10] [°C] | Final Temp. (resulting in full miscibility) [11] [°C] | Final Temp. (resulting in full miscibility) [12] [°C] | Final Temp. (resulting in full miscibility) [13] [°C] | Final Temp. (resulting in full miscibility) [14] [°C] | Final Temp. (resulting in full miscibility) [15] [°C] | Final Temp. (resulting in full miscibility) [16] [°C] | Final Temp. (resulting in full miscibility) [17] [°C] | Final Temp. (resulting in full miscibility) [18] [°C] | solubility and stability in polybutene L-14 (over a range of concentrations)
Cc1c(COC(=O)[C@H]2[C@@H](/C=C(/Cl)C(F)(F)F)C2(C)C)cccc1-c1ccccc1 [Bifenthrin Tech., bifenthrin] | 45 | 57 | 74 | 45 | 41 | 41 | 37 | 50 | 36 | 30 | 40 | 43 | 37 | 35 | 43 | 80 | 80 | 80 | soluble and stable
CC1(C)C(C=C(Cl)Cl)C1C(=O)OCc1cccc(Oc2ccccc2)c1 (stereo not shown) [Permethrin Tech., permethrin] | 26 | 27 | 30 | 29 | 33 | 50 | 51 | 54 | 62 | 26 | 28 | 31 | 35 | 51 | 54 | 80 | 80 | 80 | –

Reference: US20080103048A1, “Methods for the production of granular composite pesticidal compositions and the compositions produced thereby” (priority 2006, published 2008)
